Data published in ChEMBL document CHEMBL4184292, “Synthetic strigolactone analogues reveal anti-cancer activities on hepatocellular carcinoma cells” (Bioorg Med Chem Lett, 2018).
Activity calls are given as the source filed them. The calls are words filed in the database; no cut-off is given here.

What was measured:
HepG2 [1] = assay: Induction of apoptosis in human HepG2 cells assessed as early apoptotic cells at 40 uM after 24 hrs by Annexin-V/7AAD staining based flow cytometry (reference value: 5.1 to 12.5 %); format: functional
HepG2 [2] = assay: Induction of apoptosis in human HepG2 cells assessed as early apoptotic cells at 60 uM after 24 hrs by Annexin-V/7AAD staining based flow cytometry (reference value: 5.1 to 12.5 %); format: functional
PC-3 = assay: Cytotoxicity against human PC3 cells assessed as reduction in cell viability after 24 hrs by WST1 assay; format: functional, cell-based; settings: for IC50: PC-3, 24 h
HepG2 [3] = assay: Cytotoxicity against human HepG2 cells assessed as reduction in cell viability at 80 uM after 12 hrs by WST1 assay relative to control; format: functional
HepG2 [4] = assay: Induction of apoptosis in human HepG2 cells assessed as late apoptotic cells at 80 uM after 24 hrs by Annexin-V/7AAD staining based flow cytometry (reference value: 0.2 to 0.4%); format: functional
HepG2 [5] = assay: Cytotoxicity against human HepG2 cells assessed as reduction in cell viability at 80 uM after 8 hrs by WST1 assay relative to control; format: functional
HepG2 [6] = assay: Cytotoxicity against human HepG2 cells assessed as reduction in cell viability at 80 uM after 4 hrs by WST1 assay relative to control; format: functional
HepG2 [7] = assay: Cytotoxicity against human HepG2 cells assessed as reduction in cell viability at 80 uM after 24 hrs by WST1 assay relative to control; format: functional
HepG2 [8] = assay: Induction of apoptosis in human HepG2 cells assessed as early apoptotic cells at 80 uM after 6 hrs by Annexin-V/7AAD staining based flow cytometry (reference value: 3.8 to 4.2 %); format: functional
HepG2 [9] = assay: Cytotoxicity against human HepG2 cells assessed as reduction in cell viability at 80 uM by WST1 assay; format: functional, cell-based; settings: TDE = time-dependent effect
HepG2 [10] = assay: Cytotoxicity against human HepG2 cells assessed as reduction in cell viability at 40 uM after 24 hrs by WST1 assay; format: functional, cell-based
HepG2 [11] = assay: Induction of apoptosis in human HepG2 cells assessed as late apoptotic cells at 20 uM after 24 hrs by Annexin-V/7AAD staining based flow cytometry (reference value: 0.2 to 0.4%); format: functional
HepG2 [12] = assay: Induction of apoptosis in human HepG2 cells assessed as late apoptotic cells at 80 uM after 6 hrs by Annexin-V/7AAD staining based flow cytometry (reference value: 0.2 to 0.7 %); format: functional
HepG2 [13] = assay: Induction of apoptosis in human HepG2 cells assessed as early apoptotic cells at 20 uM after 24 hrs by Annexin-V/7AAD staining based flow cytometry (reference value: 5.1 to 12.5 %); format: functional
HepG2 [14] = assay: Induction of apoptosis in human HepG2 cells assessed as late apoptotic cells at 80 uM after 2 hrs by Annexin-V/7AAD staining based flow cytometry (reference value: 0.2 to 0.7 %); format: functional
HepG2 [15] = assay: Antimigratory activity in human HepG2 cells at 80 uM after 24 hrs by wound-scratch assay; format: functional, cell-based
[16] = Cytotoxicity against BHK cells assessed as reduction in cell viability at 80 uM after 48 hrs by WST1 assay relative to control; format: cell-based, Mesocricetus auratus; settings: hamster
Jurkat = assay: Cytotoxicity against human Jurkat cells assessed as reduction in cell viability after 24 hrs by WST1 assay; format: functional, cell-based
HepG2 [17] = assay: Induction of apoptosis in human HepG2 cells assessed as early apoptotic cells at 80 uM after 2 hrs by Annexin-V/7AAD staining based flow cytometry (reference value: 3.8 to 4.2 %); format: functional
HepG2 [18] = assay: Induction of apoptosis in human HepG2 cells assessed as early apoptotic cells at 80 uM after 24 hrs by Annexin-V/7AAD staining based flow cytometry (reference value: 5.1 to 12.5 %); format: functional
HepG2 [19] = assay: Cytotoxicity against human HepG2 cells assessed as reduction in cell viability after 24 hrs by WST1 assay; format: functional, cell-based; settings: for IC50: HepG2, 24 h
HepG2 [20] = assay: Induction of apoptosis in human HepG2 cells assessed as late apoptotic cells at 60 uM after 24 hrs by Annexin-V/7AAD staining based flow cytometry (reference value: 0.2 to 0.4%); format: functional
HepG2 [21] = assay: Induction of apoptosis in human HepG2 cells assessed as late apoptotic cells at 40 uM after 24 hrs by Annexin-V/7AAD staining based flow cytometry (reference value: 0.2 to 0.4%); format: functional
HepG2 [22] = assay: Antimigratory activity in human HepG2 cells at 100 uM after 24 hrs by wound-scratch assay; format: functional, cell-based
HepG2 [23] = assay: Growth inhibition of human HepG2 cells at 100 uM after 24 hrs; format: functional, cell-based

For `COC(=O)/C(=C/OC1C=C(C)C(=O)O1)c1ccc(Cl)cc1` (stereo not drawn), the Activity (HepG2 [1]) was 11.3%, the Activity (HepG2 [2]) was 16.1% and the Activity (PC-3) was “Dose-dependent effect”. For the same molecule, the IC50 (PC-3) was 56.6 µM, the Activity (HepG2 [3]) was 26% and the Activity (HepG2 [4]) was 0.5%. The Activity (HepG2 [5]) was 19%, the Activity (HepG2 [6]) was 11% and the Activity (HepG2 [7]) was 61 - 61.4%. The Activity (HepG2 [8]) was 13.7%, the Activity (HepG2 [9]) was “Tde” and the Activity (HepG2 [10]) was “Active”. The Activity (HepG2 [11]) was 0.2%, the Activity (HepG2 [12]) was 1.5% and the Activity (HepG2 [13]) was 9.5%. The Activity (HepG2 [14]) was 0.9%, the Activity (HepG2 [15]) was “Active” and the Activity [16] was 23%. The Activity (Jurkat) was “Dose-dependent effect”, the IC50 (Jurkat) was 44.7 µM and the Activity (HepG2 [17]) was 4.3%. For the same molecule, the Activity (HepG2 [18]) was 20.9%, the Activity (HepG2 [19]) was “Dose-dependent effect” and the IC50 (HepG2 [19]) was 67.8 µM. It also gave an Activity (HepG2 [20]) of 0.5% and an Activity (HepG2 [21]) of 0.4%.
In the case of `CC1=CC(Oc2c(Br)cccc2C#N)OC1=O` (stereo not drawn), the Activity (HepG2 [7]) is reported as 43.8% and the IC50 (HepG2 [19]) is reported as 87.6 µM.
In the case of `CC1=CC(Oc2cc(Cl)cc(Cl)c2)OC1=O` (stereo not drawn), the Activity (HepG2 [7]) is reported as 40.7% and the IC50 (HepG2 [19]) is reported as 89.5 µM.
In the case of `CC1=CC(Oc2ccc(Cl)c(Cl)c2)OC1=O` (stereo not drawn), the Activity (HepG2 [7]) is reported as 43.5%, the Activity (HepG2 [10]) is reported as “Active” and the IC50 (HepG2 [19]) is reported as 85.9 µM.
For `COC(=O)/C(=C/OC1C=C(C)C(=O)O1)c1ccccc1` (stereo not drawn), the Activity (HepG2 [1]) was 13.1%, the Activity (HepG2 [2]) was 18.5% and the Activity (PC-3) was “Dose-dependent effect”. For the same molecule, the IC50 (PC-3) was 55.1 µM, the Activity (HepG2 [3]) was 31% and the Activity (HepG2 [4]) was 0.2%. The Activity (HepG2 [5]) was 20%, the Activity (HepG2 [6]) was 13% and the Activity (HepG2 [7]) was 63.4 - 73%. The Activity (HepG2 [8]) was 13.3%, the Activity (HepG2 [9]) was “Tde” and the Activity (HepG2 [11]) was 0.2%. For the same molecule, the Activity (HepG2 [12]) was 1.2%, the Activity (HepG2 [13]) was 9.5% and the Activity (HepG2 [14]) was 1.7%. The Activity (HepG2 [15]) was “Active”, the Activity [16] was 18% and the Activity (Jurkat) was “Dose-dependent effect”. For the same molecule, the IC50 (Jurkat) was 46.4 µM, the Activity (HepG2 [17]) was 3.8% and the Activity (HepG2 [18]) was 26.6%. For the same molecule, the Activity (HepG2 [19]) was “Dose-dependent effect”, the IC50 (HepG2 [19]) was 63.5 µM and the Activity (HepG2 [20]) was 0.4%. For the same molecule, the Activity (HepG2 [21]) was 0.2%.
In the case of `COC(=O)/C(=C/OC1C=C(C)C(=O)O1)c1ccc(OC)cc1` (stereo not drawn), the Activity (HepG2 [7]) is reported as 50.1%, the Activity (HepG2 [10]) is reported as “Active” and the Activity [16] is reported as 33%. The IC50 (HepG2 [19]) was 82.1 µM.
In the case of `CC1=CC(Oc2ccc(F)cc2Br)OC1=O` (stereo not drawn), the Activity (HepG2 [7]) is reported as 39% and the IC50 (HepG2 [19]) is reported as 90.3 µM.
With `CC1=CC(=O)C(C(C)C)=CC1=O` [THYMOQUINONE] the Activity (HepG2 [4]) was 3.3%, the Activity (HepG2 [22]) was “Active” and the “growth inhibition (GI)” value (HepG2 [23]) was “Active”. The Activity (HepG2 [18]) was 91.8%.
